pEC50, pIC50: −log10 of the molar value.
Tests used:
[1] = test system: Toxo/CpIMPDH, strain that depends on CpIMPDH; format: cell-based, Toxoplasma gondii; conditions: in words
human IMPDH1 = conditions: human IMPDH1, no detectable activity; cited from earlier work
human IMPDH2 = conditions: human IMPDH2, no detectable activity; cited from earlier work
C. parvum = conditions: anticryptosporidial activity, literature values; cited from earlier work

Row | SMILES | activity against T. gondii/CpIMPDH [1] | further results
1 | O=C(Cn1c(-c2ccccn2)nc2ccccc21)Nc1ccc2ccccc2c1 [Compound C91] | sub-micromolar | 
2 | COc1ccc(NC(=O)Cn2c(-c3cscn3)nc3ccccc32)cc1 [C] |  | pIC50 (human IMPDH1): < 4.30; pIC50 (human IMPDH2): < 4.30
3 | O=C(Cn1c(-c2nccs2)nc2ccccc21)Nc1ccc2ccccc2c1 [Compound C97] | sub-micromolar | 
4 | O=C(Cn1c(-c2nccs2)nc2ccccc21)Nc1ccc(Br)cc1 [Compound C64] | sub-micromolar | 
5 | NC[C@@H]1O[C@H](O[C@H]2[C@@H](O)[C@H](O[C@@H]3[C@@H](O)[C@H](N)C[C@H](N)[C@H]3O[C@H]3O[C@H](CO)[C@@H](O)[C@H](O)[C@H]3N)O[C@@H]2CO)[C@H](N)[C@@H](O)[C@@H]1O [paromomycin] |  | pEC50 (C. parvum): 3.89 to 4.19
6 | O=C(Cn1c(-c2cscn2)nc2ccccc21)Nc1ccc2ccccc2c1 [Compound C90] | sub-micromolar | 
7 | O=C(Cn1c(-c2nccs2)nc2ccccc21)Nc1ccc(Cl)c(Cl)c1 [Compound C84] | sub-micromolar | 

Reference: PMC3289519 (Bioorganic & medicinal chemistry letters, 2012)
